Measurements: US11180528B2 (priority 2018, dated 2021)
Converted amounts (≈) assume the structure as drawn. “Also recorded” adds a separate entry of the source. Where two headings read alike, the source gives them in different places. Ends that are not written are not given here.

Legend:
F. tularensis LVS [1] = conditions: mouse, in vivo; cited from earlier work
F. tularensis LVS [2] = tested on: F. tularensis LVS
[3] = tested on: F. tularensis tularensis SchuS4
F. tularensis LVS [4] = conditions: mouse, in vivo
F. tularensis LVS [5] = tested on: F. tularensis LVS; remark: listed apart in the source
[6] = tested on: F. tularensis tularensis SchuS4; remark: listed apart in the source
G. mellonella larvae = conditions: in vivo
F. tularensis LVS [7] = type: cell-based, Francisella tularensis subsp. holarctica
F. tularensis LVS [8] = tested on: F. tularensis LVS; parameters: species or system Galleria mellonella; conditions: in vivo
F. tularensis LVS LPS = type: binding, Francisella tularensis subsp. holarctica
E. coli LPS = type: binding
F. tularensis LVS [9] = type: cell-based, Francisella tularensis subsp. holarctica; remark: listed apart in the source
[10] = tested on: A549 human lung epithelial cells

**Q.** With `CC[C@H](C)[C@H](NC(=O)[C@H](CCCCN)NC(=O)[C@H](CCC(=O)O)NC(=O)[C@H](CCCCN)NC(=O)[C@H](CO)NC(=O)[C@H](CCCCN)NC(=O)[C@H](CCCNC(=N)N)NC(=O)[C@H](Cc1ccccc1)NC(=O)[C@H](Cc1ccccc1)NC(=O)[C@H](CC(=O)O)NC(=O)CNC(=O)[C@H](CC(C)C)NC(=O)[C@@H](N)CC(C)C)C(=O)NCC(=O)N[C@@H](CCCCN)C(=O)N[C@@H](CCC(=O)O)C(=O)N[C@@H](Cc1ccccc1)C(=O)N[C@@H](CCCCN)C(=O)N[C@@H](CCCNC(=N)N)C(=O)N[C@H](C(=O)N[C@H](C(=O)N[C@@H](CCC(N)=O)C(=O)N[C@@H](CCCNC(=N)N)C(=O)N[C@H](C(=O)N[C@@H](CCCCN)C(=O)N[C@@H](CC(=O)O)C(=O)N[C@@H](Cc1ccccc1)C(=O)N[C@@H](CC(C)C)C(=O)N[C@@H](CCCNC(=N)N)C(=O)N[C@@H](CC(N)=O)C(=O)N[C@@H](CC(C)C)C(=O)N[C@H](C(=O)N1CCC[C@H]1C(=O)N[C@@H](CCCNC(=N)N)C(=O)N[C@H](C(=O)N[C@@H](CCC(=O)O)C(=O)N[C@@H](CO)C(=O)O)[C@@H](C)O)C(C)C)[C@@H](C)CC)C(C)C)[C@@H](C)CC` [LL-37] as the compound, how does the “mean time till death and survival” value (F. tularensis LVS [1]) read?
**A.** extended mean time till death but did not increase survival; also recorded: significantly extended mean time to death, but did not ultimately rescue any mice

**Q.** And the “EC50 (95% CI)” value (F. tularensis LVS [2])?
**A.** 0.209 µg/mL (≈ 0.0465 µM)

**Q.** And the “EC50 (95% CI) [μg/ml]” value (F. tularensis LVS [2])?
**A.** 0.21 (0.14-0.31) μg/ml

**Q.** What about the EC50 (F. tularensis LVS [2]; 3 h) of the same compound?
**A.** 47 nM

**Q.** What about the “EC50 (95% CI) [μg/ml]” value (F. tularensis NIH B38) of the same compound?
**A.** 0.13 (0.076-0.21) μg/ml

**Q.** What about the EC50 (F. tularensis NIH B38; 3 h) of the same compound?
**A.** 28 nM

**Q.** What about the EC50 [3] of the same compound?
**A.** 125 nM

**Q.** And the “EC50 (95% CI) [μg/ml]” value [3]?
**A.** 0.562 (0.195 to 1.61) μg/ml

**Q.** And the “severity of signs of disease (health scores)” value (F. tularensis LVS [4])?
**A.** nor did these peptides lessen signs of disease

**Q.** With “FSTKTRNWFSEHFKKVKEKLKDTFA [Apo5, reference compound]” as the compound, how does the “EC50 (95% CI)” value (F. tularensis LVS [2]; 3 h) read?
**A.** ~6 µg/mL

**Q.** And the “EC50 (95% CI)” value (F. tularensis NIH B38; 3 h)?
**A.** ~16 µg/mL

**Q.** With KFRNWFSEHFKKFKEKLKDTFA [GATR-1] as the compound, how does the “EC50 (95% CI) [μg/ml]” value (F. tularensis LVS [2]) read?
**A.** 0.76 (0.54-1.1) μg/ml

**Q.** What about the EC50 (F. tularensis LVS [2]; 3 h) of the same compound?
**A.** 260 nM

**Q.** What about the “MIC / inhibitory activity in broth” value (F. tularensis LVS [5]) of the same compound?
**A.** inactive

**Q.** What about the “EC50 (95% CI) [μg/ml]” value (F. tularensis NIH B38) of the same compound?
**A.** 16 (9.5-27) μg/ml

**Q.** And the EC50 (F. tularensis NIH B38; 3 h)?
**A.** 5620 nM

**Q.** For KFRNWFSQHFKKFKQKLKNTFA [GATR-3], which “MIC” value [6] is on record?
**A.** >83.3 µg/mL

**Q.** What about the EC50 (F. tularensis LVS [2]; 3 h) of the same compound?
**A.** 190 nM

**Q.** What about the EC50 (F. tularensis NIH B38; 3 h) of the same compound?
**A.** 280 nM

**Q.** What about the EC50 [3] of the same compound?
**A.** 10000 nM

**Q.** Which “survival of larvae (toxicity)” value (G. mellonella larvae) does the source give for KFRNWFSQHWKKWKQKLKNTWA [GATR-5] here?
**A.** 30%

**Q.** What about the EC50 (F. tularensis LVS [2]; 3 h) of the same compound?
**A.** 260 nM

**Q.** What about the EC50 (F. tularensis NIH B38; 3 h) of the same compound?
**A.** 650 nM

**Q.** What does the source list for KFRNWFSQHWRRWRQRLRNTWA [GATR-6]?
**A.** MIC [6]: >83.3 µg/mL; EC50 (F. tularensis LVS [2]; 3 h): 290 nM; EC50 (F. tularensis NIH B38; 3 h): 51 nM; EC50 [3]: 10400 nM; mean time till death (MTD) (F. tularensis LVS [4]): 6 days

**Q.** Which results are given for KTRNWFSEHFKKVKEKLKDTFA [Apo6]?
**A.** pore formation (change in RFU) (F. tularensis LVS [7]): significant pore formation; also recorded: significant membrane disruption; survival of infected larvae (F. tularensis LVS [8]): 60%; EC50 (95% CI) (F. tularensis LVS [2]): 6.82 µg/mL; EC50 (95% CI) [μg/ml] (F. tularensis LVS [2]): 6.8 (5.9-7.8) μg/ml; EC50 (F. tularensis LVS [2]; 3 h): 2500 nM; EC50 (95% CI) (F. tularensis LVS [2]; 3 h): ~6 µg/mL; LPS binding (F. tularensis LVS LPS): does not significantly bind; MIC / inhibitory activity in broth (F. tularensis LVS [5]): no observable MIC; LPS binding (E. coli LPS): did not bind; EC50 (95% CI) (F. tularensis NIH B38): 16.3 µg/mL; EC50 (95% CI) [μg/ml] (F. tularensis NIH B38): 16 (8.6-31) μg/ml; EC50 (F. tularensis NIH B38; 3 h): 5890 nM; EC50 (95% CI) (F. tularensis NIH B38; 3 h): ~16 µg/mL; EC50 [μM] [3]: Not active; dissipation of membrane potential (F. tularensis LVS [9]): dissipated the membrane potential; efficacy in murine studies (F. tularensis LVS [4]): not reliably effective

**Q.** With KTRNWFSQHFKKVKQKLKNTFA [GATR-2] as the compound, how does the “EC50 (95% CI) [μg/ml]” value (F. tularensis LVS [2]) read?
**A.** 2.4 (1.5-3.7) μg/ml

**Q.** What about the EC50 (F. tularensis LVS [2]; 3 h) of the same compound?
**A.** 860 nM

**Q.** And the “MIC / inhibitory activity in broth” value (F. tularensis LVS [5])?
**A.** inactive

**Q.** And the “EC50 (95% CI) [μg/ml]” value (F. tularensis NIH B38)?
**A.** 11 (7.7-15) μg/ml

**Q.** And the EC50 (F. tularensis NIH B38; 3 h)?
**A.** 3900 nM

**Q.** For NPKTRNWFSEHFKKVKEKLKDTFA [GATR-4], which EC50 (F. tularensis LVS [2]; 3 h) is on record?
**A.** 3700 nM

**Q.** And the “EC50 (95% CI)” value (F. tularensis LVS [2]; 3 h)?
**A.** 11.0 µg/mL

**Q.** What about the “MIC / inhibitory activity in broth” value (F. tularensis LVS [5]) of the same compound?
**A.** inactive

**Q.** What about the “EC50 [μM]” value (F. tularensis NIH B38) of the same compound?
**A.** Not active

**Q.** Which “MIC” value [6] does the source give for RWRNWWSQRWRRWRQRLRNTWA [GATR-7] here?
**A.** 41.7 µg/mL

**Q.** What about the “suppression of cell proliferation” value [10] of the same compound?
**A.** some statistically significant suppression of cell proliferation

**Q.** What about the “death of larvae (toxicity)” value (G. mellonella larvae) of the same compound?
**A.** not found to have significant death

**Q.** And the EC50 (F. tularensis LVS [2]; 3 h)?
**A.** 320 nM

**Q.** What about the inhibition (F. tularensis LVS [5]; 41.5 μg/ml) of the same compound?
**A.** 85%

**Q.** What about the EC50 (F. tularensis NIH B38; 3 h) of the same compound?
**A.** 530 nM

**Q.** What about the EC50 [3] of the same compound?
**A.** 7470 nM
